US20250170132A1, “SALTS AND POLYMORPHIC FORMS OF MENIN INHIBITORS AND PHARMACEUTICAL COMPOSITIONS THEREOF” (Syndax Pharmaceuticals, Inc., priority 2023, published 2025)

Tests used:
Assay type in all cases: physicochemical
[1] = Polymorph screen: solid vapor diffusion
Experimental: (§1) X-ray powder diffraction (XRPD) • Instrument: Panalytical Empyrean • Parameters: X-Ray tube Cu (Kα radiation); Power: 45 kV×40 mA • Scanning range: 2 to 40 2θ (degree) • Step size: 0.01 degree • Scanning speed: 6.33 degree (20) per minute Thermogravimetric analysis (TGA) • Instrument: TA Instruments Discovery TGA • Parameters: Ramp 10° C. per minute, 25 to 300° C., 50 mL/min N2 sweep Differential scanning calorimetry (DSC) • Instrument: TA Instruments Discovery DSC • Parameters: Ramp 10° C. per minute, up to 300° C. Polarized light microscopy (PLM) • Instrument: Nikon Eclipse Ci POL • Camera: Nikon DS-Fi3 • Software: Nikon NIS Elements
Solid vapor diffusion—About 30 mg API was transferred into 4 mL vials which are placed in 20 mL glass vials containing different solvents. The solids were tested by XRPD after 7-10 days (Table 31).

[2] = Polymorph screen: slurry at 50° C.; settings: slurry 50° C.
Experimental: as §1
Slurry at 50° C.—About 40 mg API was suspended and stirred in different solvents in 4 mL vials at 50° C. The solids in the slurry were characterized by XRPD after 3 days (Table 34).

[3] = Polymorph screen: slow evaporation; settings: Diethylamine, 50° C.
Experimental: as §1
The vials were covered with paraffin film with 3-5 holes and placed at specified temperature for evaporation. The obtained solids were characterized by XRPD (Table 35).

[4] = Aqueous solubility of Compound A salts
Experimental: Solubility of Compound A citrate was determined in 3 different types of matrices: unbuffered water, citrate-buffered solutions from pH 3 to 6, and formulations consisting of citrate, advantame, methylparaben sodium, potassium sorbate, and sodium chloride at pH ranging from 3 to 6. Solubility in unbuffered water at ambient temperature was 38.5 mg/mL.
The target pH was reassessed when the F3 formulation was developed. Compound A citrate solubility studies were performed initially in simple buffered solutions to assess solubility trends as a function of pH. […] The target concentration of Compound A was therefore changed to 40 mg/mL as a compromise between drug substance and preservatives dissolution rate and stability.

For `CCN(C(=O)c1cc(F)ccc1Oc1cncnc1N1CC2(CCN(C[C@H]3CC[C@H](NS(=O)(=O)CC)CC3)CC2)C1)C(C)C` [Compound A monocitrate monohydrate], the “Crystal Form” value ([1]; solid vapor diffusion, 1,4-dioxane, RT) was “Form A”, the “Crystal Form” value ([1]; solid vapor diffusion, 2-Methyl THF, RT) was “Form A” and the “Crystal Form” value ([1]; solid vapor diffusion, CHCl3, RT) was “Form A”. For the same compound, the “Crystal Form” value ([1]; solid vapor diffusion, CPME, 40° C.) was “Form A”, the “Crystal Form” value ([1]; solid vapor diffusion, DCM, RT) was “Form A” and the “Crystal Form” value ([1]; solid vapor diffusion, Dimethoxyethane, 40° C.) was “Form A”. The “Crystal Form” value ([1]; solid vapor diffusion, IPAc, RT) was “Form A”, the “Crystal Form” value ([1]; solid vapor diffusion, MEK, RT) was “Form A” and the “Crystal Form” value ([1]; solid vapor diffusion, MTBE, RT) was “Form A”. The “Crystal Form” value ([1]; solid vapor diffusion, THF, RT) was “Form A”, the “Crystal Form” value ([1]; solid vapor diffusion, Toluene, 40° C.) was “Form A” and the “Crystal Form” value ([2]; 1-propanol) was “Form A”. The “Crystal Form” value ([2]; 2-MeTHF) was “Form A”, the “Crystal Form” value ([2]; ACN 9:1) was “Form A” and the “Crystal Form” value ([2]; Anisole) was “Form A”. The “Crystal Form” value ([2]; Cyclohexane) was “Form A”, the “Crystal Form” value ([2]; Dimethoxyethane) was “Form A” and the “Crystal Form” value ([2]; Ethyl acetate/MeOH 3:1) was “Form A”. For the same compound, the “Crystal Form” value ([2]; Heptane) was “Form A”, the “Crystal Form” value ([2]; IPAc) was “Form A” and the “Crystal Form” value ([2]; MEK) was “Form A”. The “Crystal Form” value ([2]; MTBE) was “Form A”, the “Crystal Form” value ([2]; Methyl Acetate) was “Form A” and the “Crystal Form” value ([2]; NMP:CPME (3:7 v/v)) was “Form A”. The “Crystal Form” value ([2]; Propylene glycol:Acetone 1:1) was “Form A”, the “Crystal Form” value ([2]; Propylene glycol:IPA 1:1) was “Form A” and the “Crystal Form” value ([2]; THF 9:1) was “Form A”. The “Crystal Form” value ([2]; Toluene) was “Form A”, the “Crystal Form” value [3] was “FB-2” and the “Effect of solution pH on solubility” value ([4]; citrate-buffered solutions and formulations, pH 3 to 6) was “maxima at both pH 3 and 6”. For the same compound, the USP solubility definition ([4]; physiological pH range from 1.2 through 6.8) was “soluble”, the “Solubility trend as a function of pH” value ([4]; simple buffered solutions, pH 3.0 to 6.0) was “highest at pH 3.0” and the solubility ([4]; unbuffered water, ambient temperature, read-out: Solubility) was 38.5 mg/mL.
